The target in the assay is T1, full-length hepatitis C viral protein NS3•4A (Hepatitis C virus genotype 1a, UniProt P27958).
T1 construct: hexa-histidine (N); made in house; host or cells: Sf9 insect cells (baculovirus, pVL1392)
Kind of assay: biochemical. The conditions noted are these: Enzyme Assay 2 (HCV NS3 Peptide Cleavage Assay) activity, apparent Ki class. Also noted: species or system HCV sub-type strain 1a.

Turning to `COc1cc(OC)c(C2=NO[C@]3(C2)C[C@@H](C(=O)N[C@@H](CC2CC2)C(=O)C(N)=O)N(C(=O)[C@@H](NC(=O)CC2(C)CCOCC2)C(C)(C)C)C3)cc1Cl` [Compound 529], the Ki was less than 100 nM.

Take `CCC[C@H](NC(=O)[C@@H]1C[C@]2(CC(c3ccc(OCC)c(Cl)c3)=NO2)CN1C(=O)[C@@H](NC(=O)CC1CCCCC1)C(C)(C)C)C(=O)C(=O)NC1CC1` [Compound 556]: the Ki was less than 100 nM.

As to `COc1cc(OC)c(C2=NO[C@]3(C2)C[C@@H](C(=O)N[C@@H](CC2CC2)C(=O)C(N)=O)N(C(=O)[C@@H](NC(=O)CC2CCCCC2)C(C)(C)C)C3)cc1Cl` [Compound 562], the Ki was less than 100 nM.

On to `CCC[C@H](NC(=O)[C@@H]1C[C@]2(CC(c3cc(Cl)c(OC)cc3OC)=NO2)CN1C(=O)[C@@H](NC(=O)OC(C)(C)C)C(C)(C)C)C(=O)C(=O)N1CCC1` [Compound 581], for which the Ki was less than 100 nM.

As for `CCC[C@H](NC(=O)[C@@H]1C[C@]2(CC(c3cccc4cccnc34)=NO2)CN1C(=O)[C@@H](NC(=O)CC1CCCCCC1)C(C)(C)C)C(=O)C(=O)NC1CC1` [Compound 595], the Ki is less than 100 nM.

Regarding `CCC[C@H](NC(=O)[C@@H]1C[C@]2(CC(c3cccc4cccnc34)=NO2)CN1C(=O)[C@@H](NC(=O)CC1CCCCCC1)C(C)(C)C)C(=O)C(=O)NC` [Compound 596], the Ki is 100 to 500 nM.

Regarding `CCC[C@H](NC(=O)[C@@H]1C[C@]2(CC(c3ccc(N(C)C)c(Cl)c3)=NO2)CN1C(=O)[C@@H](NC(=O)CC1CCCCC1)C(C)(C)C)C(=O)C(=O)NC1CC1` [Compound 597], the Ki lay within 100 to 500 nM.

On to `CCC[C@H](NC(=O)[C@@H]1C[C@]2(CC(c3cccc(NC(=O)C(Cl)Cl)c3)=NO2)CN1C(=O)[C@@H](NC(=O)CC1CCCCC1)C(C)(C)C)C(=O)C(=O)NC1CC1` [Compound 598], for which the Ki fell in the range of 100 to 500 nM.

For the molecule `CCC[C@H](NC(=O)[C@@H]1C[C@@]2(CC(c3cc(Cl)c4c(c3)CCCN4C)=NO2)CN1C(=O)[C@@H](NC(=O)OC(C)(C)C)C(C)(C)C)C(=O)C(=O)NC1CC1` [Compound 600], the Ki lay within 100 to 500 nM.

For the molecule `CCC[C@H](NC(=O)[C@@H]1C[C@]2(CC(c3cc(Cl)c4c(c3)CCCN4C)=NO2)CN1C(=O)[C@@H](NC(=O)OC(C)(C)C)C(C)(C)C)C(=O)C(=O)NC1CC1` [Compound 601], the Ki was less than 100 nM.

Take `CC(C)(C)[C@H](NC(=O)CC1CCCCCC1)C(=O)N1C[C@@]2(CC(c3cccc4cccnc34)=NO2)C[C@H]1C(=O)N[C@@H](CC1CC1)C(=O)C(N)=O` [Compound 602]: the Ki is less than 100 nM.

Consider `CC(C)(C)[C@H](NC(=O)CC1CCCCC1)C(=O)N1C[C@@]2(CC(c3cccc4cccnc34)=NO2)C[C@H]1C(=O)N[C@@H](CC1CC1)C(=O)C(N)=O` [Compound 603], for which the Ki is less than 100 nM.

As to `CCC[C@H](NC(=O)[C@@H]1C[C@]2(CC(c3cc(Cl)c(OC)cc3C)=NO2)CN1C(=O)[C@@H](NC(=O)CC1CCCCC1)C(C)(C)C)C(=O)C(=O)NC` [Compound 604], the Ki lay in the range of 100 to 500 nM.

As for `CCC[C@H](NC(=O)[C@@H]1C[C@]2(CC(c3cc(Cl)c(OC)cc3C)=NO2)CN1C(=O)[C@@H](NC(=O)CC1CCCCCC1)C(C)(C)C)C(=O)C(=O)NC1CC1` [Compound 606], the Ki was 100 to 500 nM.

On to `CCC[C@H](NC(=O)[C@@H]1C[C@]2(CC(c3cc(Cl)c(OC)cc3C)=NO2)CN1C(=O)[C@@H](NC(=O)CC(C)(C)C)C(C)(C)C)C(=O)C(=O)NC` [Compound 607], for which the Ki lay in the range of 100 to 500 nM.

`CCC[C@H](NC(=O)[C@@H]1C[C@]2(CC(c3cc(Cl)c(OC)cc3C)=NO2)CN1C(=O)[C@@H](NC(=O)CC(C)(C)C)C(C)(C)C)C(=O)C(=O)NC1CC1` [Compound 608]: the Ki is 100 to 500 nM.

For `CCC[C@H](NC(=O)[C@@H]1C[C@]2(CC(c3ccc(F)c(Cl)c3)=NO2)CN1C(=O)[C@@H](NC(=O)CC1CCCCC1)C(C)(C)C)C(=O)C(=O)NC` [Compound 609], the Ki was less than 100 nM.

As for `CCC[C@H](NC(=O)[C@@H]1C[C@]2(CC(c3ccc(F)c(Cl)c3)=NO2)CN1C(=O)[C@@H](NC(=O)CC1CCCCCC1)C(C)(C)C)C(=O)C(=O)NC` [Compound 610], the Ki was less than 100 nM.

`CCC[C@H](NC(=O)[C@@H]1C[C@]2(CC(c3ccc(F)c(Cl)c3)=NO2)CN1C(=O)[C@@H](NC(=O)CC1CCCCCC1)C(C)(C)C)C(=O)C(=O)NC1CC1` [Compound 611]: the Ki is less than 100 nM.

For the molecule `CCC[C@H](NC(=O)[C@@H]1C[C@]2(CC(c3ccc(F)c(Cl)c3)=NO2)CN1C(=O)[C@@H](NC(=O)CC(C)(C)C)C(C)(C)C)C(=O)C(=O)NC` [Compound 612], the Ki is less than 100 nM.

With `CCC[C@H](NC(=O)[C@@H]1C[C@]2(CC(c3ccc(F)c(Cl)c3)=NO2)CN1C(=O)[C@@H](NC(=O)CC(C)(C)C)C(C)(C)C)C(=O)C(=O)NC1CC1` [Compound 613], the Ki was less than 100 nM.

For the molecule `CCC[C@H](NC(=O)[C@@H]1C[C@]2(CC(c3cc(C)c(OC)cc3OC)=NO2)CN1C(=O)[C@@H](NC(=O)CC1CCCCC1)C(C)(C)C)C(=O)C(=O)NC1CC1` [Compound 614], the Ki was less than 100 nM.

On to `CCC[C@H](NC(=O)[C@@H]1C[C@]2(CC(c3cc(C)c(OC)cc3C)=NO2)CN1C(=O)[C@@H](NC(=O)CC1CCCCC1)C(C)(C)C)C(=O)C(=O)NC1CC1` [Compound 615], for which the Ki was in the range of 100 to 500 nM.

Consider `CNC(=O)C(=O)[C@H](CC1CC1)NC(=O)[C@@H]1C[C@]2(CC(c3cc(Cl)c(OC)cc3OC)=NO2)CN1C(=O)[C@@H](NC(=O)CC1CCCCCC1)C(C)(C)C` [Compound 616], for which the Ki is less than 100 nM.

Take `CNC(=O)C(=O)[C@H](CC1CC1)NC(=O)[C@@H]1C[C@]2(CC(c3cccc(Cl)c3)=NO2)CN1C(=O)[C@@H](NC(=O)CC1CCCCC1)C1(OC)CC1` [Compound 617]: the Ki is 100 to 500 nM.

`CCC[C@H](NC(=O)[C@@H]1C[C@]2(CC(c3cc(Cl)c(OC)cc3OC)=NO2)CN1C(=O)[C@@H](NC(=O)CC1CCCCC1)C(C)(C)C)C(=O)C(N)=O` [Compound 618]: the Ki is less than 100 nM.

Take `CCC[C@H](NC(=O)[C@@H]1C[C@]2(CC(c3cccc4cccnc34)=NO2)CN1C(=O)[C@@H](NC(=O)OC(C)(C)C)C(C)(C)C)C(=O)C(=O)NC1CC1` [Compound 619]: the Ki is less than 100 nM.

In the case of `CCC[C@H](NC(=O)[C@@H]1C[C@]2(CC(c3cc(Cl)c(OC)cc3C)=NO2)CN1C(=O)[C@@H](NC(=O)CC1CCCCC1)C(C)(C)C)C(=O)C(N)=O` [Compound 620], the Ki is less than 100 nM.

As for `CCC[C@H](NC(=O)[C@@H]1C[C@]2(CC(c3ccc(F)c(Cl)c3)=NO2)CN1C(=O)[C@@H](NC(=O)CC1CCCCC1)C(C)(C)C)C(=O)C(N)=O` [Compound 621], the Ki is less than 100 nM.

For the molecule `CCC[C@H](NC(=O)[C@@H]1C[C@]2(CC(c3cc(Cl)c(OC)cc3C)=NO2)CN1C(=O)[C@@H](NC(=O)CC1CCCCCC1)C(C)(C)C)C(=O)C(N)=O` [Compound 622], the Ki is 100 to 500 nM.

Turning to `CCC[C@H](NC(=O)[C@@H]1C[C@]2(CC(c3ccc(F)c(Cl)c3)=NO2)CN1C(=O)[C@@H](NC(=O)CC1CCCCCC1)C(C)(C)C)C(=O)C(N)=O` [Compound 623], the Ki was less than 100 nM.

Regarding `CCC[C@H](NC(=O)[C@@H]1C[C@]2(CC(c3cc(Cl)c(OC)cc3C)=NO2)CN1C(=O)[C@@H](NC(=O)CC(C)(C)C)C(C)(C)C)C(=O)C(N)=O` [Compound 624], the Ki lay in the range of 100 to 500 nM.

For the molecule `CCC[C@H](NC(=O)[C@@H]1C[C@]2(CC(c3ccc(F)c(Cl)c3)=NO2)CN1C(=O)[C@@H](NC(=O)CC(C)(C)C)C(C)(C)C)C(=O)C(N)=O` [Compound 625], the Ki was less than 100 nM.

Consider `CCC[C@H](NC(=O)[C@@H]1C[C@]2(CC(c3cc(Cl)c(OC)cc3C)=NO2)CN1C(=O)[C@@H](NC(=O)OC(C)(C)C)C(C)(C)C)C(=O)C(N)=O` [Compound 626], for which the Ki is less than 100 nM.

On to `CCC[C@H](NC(=O)[C@@H]1C[C@]2(CC(c3ccc(F)c(Cl)c3)=NO2)CN1C(=O)[C@@H](NC(=O)OC(C)(C)C)C(C)(C)C)C(=O)C(N)=O` [Compound 627], for which the Ki was less than 100 nM.

As for `CCC[C@H](NC(=O)[C@@H]1C[C@]2(CC(c3cc(Cl)c(OC)cc3C)=NO2)CN1C(=O)[C@@H](NC(=O)OC(C)(C)C)C(C)(C)C)C(=O)C(=O)NC1CC1` [Compound 628], the Ki was 100 to 500 nM.

In the case of `CCC[C@H](NC(=O)[C@@H]1C[C@]2(CC(c3ccc(F)c(Cl)c3)=NO2)CN1C(=O)[C@@H](NC(=O)OC(C)(C)C)C(C)(C)C)C(=O)C(=O)NC1CC1` [Compound 629], the Ki is less than 100 nM.

Take `CCC[C@H](NC(=O)[C@@H]1C[C@]2(CC(c3cc(Cl)c(OC)cc3C)=NO2)CN1C(=O)[C@@H](NC(=O)OC(C)(C)C)C(C)(C)C)C(=O)C(=O)NC` [Compound 630]: the Ki lay in the range of 100 to 500 nM.

For `CCC[C@H](NC(=O)[C@@H]1C[C@]2(CC(c3ccc(F)c(Cl)c3)=NO2)CN1C(=O)[C@@H](NC(=O)OC(C)(C)C)C(C)(C)C)C(=O)C(=O)NC` [Compound 631], the Ki is less than 100 nM.

With `CCC[C@H](NC(=O)[C@@H]1C[C@]2(CC(c3cc(Cl)ccc3OC)=NO2)CN1C(=O)[C@@H](NC(=O)CC1CCCCC1)C(C)(C)C)C(=O)C(=O)NC` [Compound 632], the Ki was less than 100 nM.

Regarding `COc1ccc(Cl)cc1C1=NO[C@]2(C1)C[C@@H](C(=O)N[C@@H](CC1CC1)C(=O)C(N)=O)N(C(=O)[C@@H](NC(=O)CC1CCCCC1)C(C)(C)C)C2` [Compound 633], the Ki is less than 100 nM.

Consider `CCC[C@H](NC(=O)[C@@H]1C[C@]2(CC(c3cc(Cl)ccc3OC)=NO2)CN1C(=O)[C@@H](NC(=O)CC1CCCCCC1)C(C)(C)C)C(=O)C(=O)NC` [Compound 634], for which the Ki is less than 100 nM.

As for `COc1ccc(Cl)cc1C1=NO[C@]2(C1)C[C@@H](C(=O)N[C@@H](CC1CC1)C(=O)C(N)=O)N(C(=O)[C@@H](NC(=O)CC1CCCCCC1)C(C)(C)C)C2` [Compound 635], the Ki is less than 100 nM.

For the molecule `CCC[C@H](NC(=O)[C@@H]1C[C@]2(CC(c3cc(Cl)ccc3OC)=NO2)CN1C(=O)[C@@H](NC(=O)CC1CCCCC1)C(C)(C)C)C(=O)C(N)=O` [Compound 636], the Ki was less than 100 nM.

In the case of `CCC[C@H](NC(=O)[C@@H]1C[C@]2(CC(c3cc(Cl)ccc3OC)=NO2)CN1C(=O)[C@@H](NC(=O)CC1CCCCCC1)C(C)(C)C)C(=O)C(N)=O` [Compound 637], the Ki was less than 100 nM.

(Values after patent US7964624B1, “Inhibitors of serine proteases” (priority 2005, dated 2011).)
